According to a melting point compilation (Tetko et al.):

SMILES | melting point
COc1ccc2sc(C(=O)O)c(C)c2c1 | 254 to 256 °C
CC(CC(=O)O)c1cccc(C(F)(F)F)c1 (configuration not stated) | 83 to 85 °C
O=C(O)C1CCCN1S(=O)(=O)c1ccc(Br)cc1 (configuration not stated) | 103 to 105 °C
Cc1cccc(NC(=O)N2CCCC(C(=O)O)C2)c1 (configuration not stated) | 139 to 141 °C
Cc1cc(N2CCNC(=O)C2)ccc1CN | 154 to 156 °C
CC(=O)Nc1cc(-c2csc(N)n2)ccc1O | 218 to 222 °C
O=S(=O)(Nc1nc2ccccc2nc1Cl)c1ccccc1 | 172 to 174 °C
OCc1sc2ccccc2c1Cl | 90 to 92 °C
O=C(O)CC(Br)C(=O)c1cccs1 (configuration not stated) | 125 to 127 °C
O=C(CO)Nc1ccc(C(F)(F)F)cc1 | 104 to 106 °C
CS(=O)(=O)Cc1cc(N)ccc1Cl | 135 to 137 °C
Cc1n[nH]c(N)c1-c1ccc2c(c1)OCCO2 | 120 to 122 °C
COc1cc(C)c(Br)cc1S(=O)(=O)Cl | 137 to 139 °C
Cc1nc(-c2ccc(Br)cc2)sc1C(C)O (configuration not stated) | 119 to 121 °C
Cc1ccc(S(=O)(=O)Nc2cc(Cl)ccc2C(=O)O)cc1 | 205 to 207 °C
Cc1ccc(NC(=O)CN(C)C(=O)CCl)cc1 | 145 to 147 °C
CC(Cl)c1cccc([N+](=O)[O-])c1 (configuration not stated) | 33 to 35 °C
COc1ccc(NCc2cccs2)cc1 | 71 to 73 °C
CC(C)C(=O)NC(C)c1ccc(S(=O)(=O)Cl)s1 (configuration not stated) | 68 to 70 °C
ON=Cc1cnc2ccccn12 | 183 to 185 °C
Nc1ccc2c(c1)oc1ccccc12 | 89 to 91 °C
CN(CC(=O)O)c1cnccn1 | 170 to 172 °C
Cc1[nH]c2ccc(C(N)=O)cc2c1C | 169 to 171 °C
Cn1cnnc1-c1ccc(N)cc1 | 256 to 258 °C

SMILES | melting point
CC(C)(C)CNc1cccnc1 | 62 to 64 °C
COc1ccccc1C1C(C(=O)O)CCC(=O)N1c1ccc(C)cc1 (configuration not stated) | 205 to 208 °C
Clc1nnc(-c2ccccc2)n1C1CC1 | 159 to 161 °C
ClCc1sc2ccccc2c1Cl | 77 to 79 °C
O=C(O)c1ccc(-c2ccccc2)cc1F | 187 to 189 °C
CC(=O)CC(=O)Nc1ccccc1F | 75 to 77 °C
COC(=O)c1ccc(C)c(O)c1 | 119 to 121 °C
CCOC(=O)c1nc2ccc(Br)cc2c(=O)[nH]1 | 261 to 263 °C
O=C(O)CNC(=O)c1ccccc1Br | 138 to 140 °C
Nc1ccn(CCc2ccncc2)n1 | 140 to 142 °C
Oc1ccc(-c2ncc[nH]2)cc1 | 265 to 267 °C
Cc1ccc([N+](=O)[O-])c(C)c1N | 80 to 82 °C
O=C(O)Cn1nccn1 | 129 to 131 °C
C#CCn1ccc2ccccc21 | 43 to 45 °C
CCOC(=O)Nc1ccc(Br)cc1N | 79 to 81 °C
O=C(NCc1ccc(C(=O)O)cc1)OCc1ccccc1 | 190 to 192 °C
O=C(O)Cc1ccc(OCCOc2ccccc2)cc1 | 169 to 171 °C
O=C(O)c1cc(F)c(Br)c(S(=O)(=O)Cl)c1 | 213 to 215 °C
O=C(O)CCN1CCCC1=O | 109 to 111 °C
CC(Oc1cccc(F)c1)C(=O)O (configuration not stated) | 95 to 97 °C
Cc1nn(C)c2nc(C3CC3)cc(C(=O)O)c12 | 242 to 244 °C
Nc1ccnc(OCCO)c1 | 99 to 101 °C
O=C(O)CCNS(=O)(=O)c1cccs1 | 143 to 145 °C
O=Cc1ccc(-n2ccc(C(F)(F)F)n2)cc1 | 68 to 70 °C

SMILES | melting point
Cc1ccc(S(=O)(=O)c2ccc(NN)cc2)cc1 | 173 to 175 °C
CNc1ccc(C(=O)O)cn1 | 249 to 251 °C
C=CCNC(=O)c1cccnc1Cl | 75 to 77 °C
CS(=O)(=O)c1cccc(C(N)c2ccc(Cl)cc2)c1 (configuration not stated) | 94 to 96 °C
Cc1cc(C(F)(F)F)c(C#N)c(SCC(=O)O)n1 | 132 to 134 °C
O=C1CC(Cc2ccc(F)cc2)C(=O)N1 (configuration not stated) | 107 to 109 °C
Nc1nc(-c2ccc(S(=O)(=O)N3CCCCCC3)cc2)cs1 | 242 to 244 °C
O=c1c(Br)c[nH]cc1[N+](=O)[O-] | 332 to 334 °C
Cc1nn(-c2ccccc2)c(N)c1-c1ccccc1 | 82 to 84 °C
O=S(=O)(c1ccc(CCl)o1)N1CCCC1 | 81 to 83 °C
C=CCN(CC(=O)O)S(=O)(=O)c1ccc(Cl)cc1 | 136 to 138 °C
CCC(C)c1ccc(-c2csc(N)n2)cc1 (configuration not stated) | 77 to 79 °C
N#CCC(=O)NCCN1CCOCC1 | 68 to 75 °C
NC(=O)NCc1cccnc1 | 182 to 184 °C
CNC(C(=O)O)c1ccccc1C(F)(F)F (configuration not stated) | 290 to 292 °C
OCc1cnc(-c2ccccc2)[nH]1 | 154 to 156 °C
CCN(CC)c1ccc(NC(=O)CCl)cc1 | 141 to 143 °C
CN(C)c1ccc(S(N)(=O)=O)cc1N | 150 to 154 °C
CC1CCC2(CC1)NC(=O)NC2=O (configuration not stated) | 230 to 232 °C
CCNS(=O)(=O)c1cccc(C(=O)O)c1 | 199 to 201 °C
Cc1cc(N)c2c(n1)CCCC2 | 121 to 123 °C
CN(C)C(=O)c1ccccc1C(=O)O | 124 to 126 °C
NC(=O)c1cccnc1S | 297 to 299 °C
N#Cc1cn(-c2ccc(N)cc2)nc1N | 195 to 197 °C
